Assay results reported in patent US7387779B2, “Anti-angiogenic proteins and fragments and methods of use thereof” (Beth Israel Deaconess Medical Center, priority 1998, dated 2008).

Key:
C-PAE cells [1] = assay: Endothelial cell proliferation, methylene blue staining; type: cell-based, bovine; conditions: for inhibition of endothelial cell proliferation by synthetic peptides: 10 μg/ml, 20% FCS
Method: A methylene blue staining test was also done. 3,100 cells were added to each well and treated as above, and cells were then counted using the method of Oliver et al. (Oliver, M. H. et al., 1989, J. Cell. Science 92:513-18). All wells were washed one time with […] of 1×PBS and the cells were fixed by adding […] of 10% formalin in neutral-buffered saline (Sigma Chemical Co., St. Louis, Mo., USA) for 30 minutes at room temperature. After formalin removal cells were stained with a solution of 1% methylene blue (Sigma Chemical Co.) in 0.01 M borate buffer (pH 8.5) for 30 minutes at room temperature. After removal of staining solution, the wells were washed 5 times with […] of 0.01 M borate buffer (pH 8.5). Methylene blue was extracted from the cells with […] of 0.1N HCi/ethanol (1:1 mixture) for 1 hour at room temperature. The amount of methylene blue staining was measured on a microplate reader (BioRad, Hercules, Calif., USA) using light absorbance at 655 nm wavelength.
In the methylene-blue staining method, 7000 cells were plated into each well of a 96-well plate, and treated as described above. Cells were then counted using the method of Oliver et al. (1989, J. Cell. Sci. 92:513-8). After 48 hours of treatment, all wells were washed with 100 μl of PBS, and the cells fixed with 10% formalin in neutral-buffered saline (Sigma Chemical Co., St. Louis, Mo., USA). The cells were then stained with 1% methylene blue (Sigma) in 0.01M borate buffer, pH 8.5. Wells were washed with 0.01M borate buffer, and the methylene blue extracted from the cells with 0.1N HCl/ethanol, and the absorbance measured in a microplate reader (Bio-Rad, Hercules, Calif., USA) at 655 nm. Polymyxin B (Sigma) at a final concentration of 5 μg/ml was used to inactivate endotoxin (Liu, S. et al., 1997, Clin. Biochem. 30:455-63).
Proliferation of endothelial cells (C-PAE cells) and WM-164 melanoma cells was assayed by methylene blue staining, as described above in Examples 25 and 34. The results are shown in FIGS. 33A and 33B, which are a pair of graphs showing the effect of increasing concentration (x-axis) of Tumstatin, Tum-1, Tum-2, Tum-3 and Tum-4 on the relative number (y-axis) of C-PAE cells (FIG. 33A) and WM-164 cells (FIG. 33B). […] Tum-4, however, did have anti-proliferative activity in this cell line. […] Only Tum-4 inhibited WM-164 melanoma cells.
For the proliferation assay, Canstatin, Can-1 and Can-2 soluble proteins (0.1-20.0 μg/ml) were added to the growth medium of proliferating C-PAE cells, which were stimulated with 10% FBS in DMEM, in addition to 5 ng/ml bFGF and 3 ng/ml VEGF. The results are shown in FIG. 40, which is a graph showing the effect of increasing concentrations of Canstatin (♦), Can-1 (▪) and Can-2 (▴) (x-axis) on the relative cell number (y-axis) of C-PAE cells. Each concentration of each protein was tested in quadruplicate. Bovine serum albumin (BSA) was used as a control treatment. Polymyxin B was used to control for endotoxin interference, and no differences were found between assays run with and without polymyxin B added to the medium. Cells were allowed to proliferate for 48 hours, and were then fixed, stained and the density read with a Bio-Rad plate reader (Bio-Rad, Hercules, Calif., USA). Canstatin and Can-1 both caused dose-dependent decreases in the percent cell number, and both reduced the number of cells by 80% at concentrations of 5 μg/ml and higher.
An endothelial cell proliferation assay was used to compare the activity of Tumstatin and some of the deletion mutants. Recombinant Tumstatin (28 kDa), Tumstatin-44-131 (12 kDa) and T3 peptide were used in a methylene blue proliferation assay in equimolar concentrations.

PC3 tumor xenografts = assay: PC3 human prostate tumor xenograft (Example 58); type: in vivo, nude NCRNU mice; conditions: 5.0 mg/kg i.p. daily, 3 weeks; for Final Tumor Weight (V/Vo) ± SEM: T7 vehicle 5.626 ± 0.38, T8 vehicle 6.278 ± 1.483
Method: Male nude NCRNU mice, 5-6 weeks old, weighing approximately 25 grams, 6 were implanted with 2×10^6 PC3 cells into the dorsal subcutis. When the tumors were 60 mm^3, the animals were pair-matched into treatment and control groups. Each group contained 6-7 tumored mice, each of which was ear-tagged and followed individually throughout the experiment. Initial doses of peptide or vehicle control were given on the day of pair-matching (Day 0), and were administered via intraperitoneal (i.p.) injection at doses indicated. Mice were weighed weekly, and tumor measurements were taken by calipers weekly. These tumor measurements were converted to tumor volume by a well-known formula, (V=W^2×L/2), and mean tumor volumes were plotted against time. Mice were euthenized at the end of the treatment period. Upon termination, the mice were weighed, sacrificed and their tumors were excised. The mean tumor weight per group was calculated, and the value of mean treated tumor volume or volume ratio/mean control tumor volume or volume ratio×100 was subtracted from 100% to give the tumor growth inhibition (TG1) for each group. All groups received injections I.P. daily, except for two T8-treated groups, which were treated twice per week and once a week, respectively.

C-PAE cells [2] = assay: Cell attachment assay; type: cell-based, bovine; conditions: for attachment of endothelial cells onto vitronectin-coated plates in the presence of peptide: 5 μg/ml
Method: (§1) The attachment of HUVECs to Tumstatin-coated plates in the presence of integrin subunits α1 through α6, β1, and αvβ3 integrin blocking antibody was examined. This assay was performed according to the method of Senger et al. (Senger, D. R. et al, 1997, Proc. Natl. Acad. Sci. USA 94:13612-7), with minor modification. 96-well plates were coated with either human Tumstatin, mouse laminin-1, or human Type IV collagen (Collaborative Biomedical Prods., Bedford, Mass., USA) at a concentration of 10 μg/ml overnight at 37° C. Vitronectin (Collaborative Biomed. Prods.) at a concentration of 0.5 μg/ml was then used to coat the plates. The remaining protein binding sites were blocked with 100 mg/ml of BSA (Sigma Chemical Co., St. Louis, Mo., USA) in PBS for 2 hours. HUVEC cells were grown to subconfluence (70-80%) in EGM-2 medium, gently trypsinized and resuspended in serum-free medium (1.5×10^5 cells/ml). The cells were mixed with 10 μg/ml of either mouse IgG, (control) (Life Technologies/Gibco BRL, Gaithersberg, Md., USA) or antibody (mouse monoclonal antibody to the human β1 integrin (clone P4C10) (Life Technologies/Gibco BRL); monoclonal antibody to human integrins α1 through α.6 (CHEMICON Int'l, Temecula, Calif., USA); αvβ3 integrin (clone LM609) (CHEMICON Int'l) and incubated for 15 minutes at room temperature, with gentle agitation. One hundred microliters of the cell suspension was then added to each well and incubated for 45 minutes at 37° C. Unattached cells were removed by washing, and the number of attached cells were counted after staining with methylene blue. C-PAE cells were used in separate experiments, following the above procedure.
To determine the attachment of C-PAE cells to plates coated with the Tumstatin deletion mutants, the cell attachment assay was performed as described above (see, e.g., Example 28). Rabbit antibody raised against Tum-4 was prepared as previously described (Kalluri et al., 1997, J. Clin. Invest. 99:2470-8). Goat anti-rabbit IgG antibody conjugated with horseradish peroxidase was purchased from Sigma Chemical Company (St. Louis, Mo., USA). […] Plates coated with Tum-1 (FIG. 36A) were also treated with anti-Tum-4 antibody (1:200 dilution) to block the previously reported (Shahan et al, 1999, Cancer Res. 59:4584-90) αvβ3 binding site, as well as the αvβ5 binding site.
(§2) Cell Attachment Activity: Cell attachment using endothelial cells was performed as described above. HUVEC or C-PAE cells were incubated with monoclonal anti-human integrin antibodies, control mouse IgG (10 μg/ml), or synthetic peptide, plated onto pre-coated 96-well plates, and the number of cells attaching to the plates was determined using measurement of methylene blue staining at OD655. […] CNGRC peptide was used as a control.
(§3) The cell attachment assay was performed as described above.
Tumstatin produced in 293 human embryonic kidney cells was used to coat tissue culture plates. […] PBS and BSA served as positive and negative controls, respectively.

C-PAE cells [3] = assay: Cell cycle analysis (propidium iodide, flow cytometry); type: cell-based, bovine
Method: To further evaluate the mechanism of T3 peptide on endothelial cell proliferation, the effect of T3 peptide on cell cycle progression was analyzed. In the growth arrested and contact inhibited cells (0 hour), 4.1% of cells were in S phase. […] This was true even at a maximal dosage of 100 μg/ml. The effect of the T3 peptide was dose-dependent, however, with the percentage of cells in S phase at 21.4% at 10 μg/ml, and 20.5% at 25 μg/ml. The percentage of cells in G0/G1 phase was 88.3% at 0 hour, 53.4% for the bFGF control, and 57.6%, 57.6% and 71.0% for treatments with T1, T6 and T3 peptide, respectively. […] Apoptotic Activity: Peptides T2, T3, T4, T5 and T6 (10 μg/ml concentration) were tested for their effect of viability of C-PAE cells using the MTT assay, as described in Examples 32 and 36 above. The results are shown in FIG. 43D, which is a histogram showing cell viability as measured at OD595 (y-axis), and treatments with the synthetic peptides (x-axis). […] TNF-α (100 ng/ml) was used to serve as a positive control in inducing endothelial cell apoptosis.
The effect of Tumstatin-44-131 and Tum-5-125-C-A on the cell cycle were assayed similarly to Example 4 above. Briefly, C-PAE cells were growth arrested by contact inhibition for 48 hours. The cells, at 10^5 cells per well, were then harvested and plated into a 12-well plate coated with fibronectin in 5% FCS and either recombinant Tumstatin-44-131 or Tum-5-125-C-A. After 21 hours, the cells were harvested and fixed in 70% ice-cold ethanol. The fixed cells were rehydrated a room temperature for 30 minutes in PBS containing 2% FCS and 0.1% Tween-20, centrifuged and resuspended in 0.5 ml of the same buffer. RNase (5 μg/ml) digestion was done at 37° C. for one hour, followed by staining with propidium iodide (5 μg/ml). The cells were then counted using an EPICS XL-MCL flow cytometer (Beckman-Coulter Instruments, Fullerton, Calif., USA).

HUVEC cells = assay: Cell adhesion assay with integrin blocking antibodies; type: cell-based, human; conditions: label = plate coating; 10 μg/ml antibody
Method: as §1, §2, §3

## TMPFLFCNVNDVCNFASRNDYSYWL [T7]
C-PAE cells [1]; equimolar comparison, read-out: ED50, anti-proliferative effect
  EC50: 1 µM
PC3 tumor xenografts
  % Tumor growth inhibition: 66.8%
  Final Tumor Weight (V/Vo) ± SEM: 1.868 ± 0755

## ANMSRNVFFDCTSFPVCQKFLNDTRNY (Scrambled peptide SP1) [reference compound]
PC3 tumor xenografts
  % Tumor growth inhibition: 31.7%
  Final Tumor Weight (V/Vo) ± SEM: 4.284 ± 1.244

## CNGRC (synthetic blocking peptide) [reference compound]
C-PAE cells [2]
  attachment of endothelial cells onto vitronectin-coated plates in the presence of peptide: did not show such inhibition

## DVCNFASRNDYSYWLSTPAL (T4 (amino acids 83-102 of SEQ ID NO10))
C-PAE cells [1]
  inhibition of endothelial cell proliferation by synthetic peptides: no inhibitory activity

## RALEPYISRCTVCEGPAIA (T6 (amino acids 113-131 of SEQ ID NO10))
C-PAE cells [3]; bFGF 24 hours (control 22.1%), T1 or T6, maximal dosage of 100 μg/ml
  percentage of cells in S phase: 21.2%
C-PAE cells [3]; bFGF control 53.4%
  percentage of cells in G0/G1 phase: 57.6%
C-PAE cells [2]; 0.1, 1.0, 10.0 μg/ml peptide
  binding to vitronectin-coated plates (2.5 μg/ml) in the presence of peptide: did not inhibit attachment

## laminin-1: mouse laminin-1, control plate coating [reference compound]
HUVEC cells
  inhibition of HUVEC attachment to coated plates by α5 antibody: 50%
  inhibition of HUVEC attachment to coated plates by α6 antibody: 89%

## CDCRGDCFC (synthetic blocking peptide) [reference compound]
C-PAE cells [2]
  attachment of endothelial cells onto vitronectin-coated plates in the presence of peptide: inhibited attachment

## NQRAHGQDLGTLGSCLQRFT (T2 (amino acids 53-72 of SEQ ID NO10))
C-PAE cells [1]
  inhibition of endothelial cell proliferation by synthetic peptides: nor did it inhibit endothelial cell proliferation

B1: vitronectin: control plate coating (protein)
chain: DQESCKGRCTEGFNVDKKCQCDELCSYYQSCCTDYTAECKPQVTRGDVFTMPEDEYTVYDDGEEKNNATVHEQVGGPSLTSDLQAQSKGNPEQTPVLKPEEEAPAPEVGASKPEGIDSRPETLHPGRPQPPAEEELCSGKPFDAFTDLKNGSLFAFRGQYCYELDEKAVRPGYPKLIRDVWGIEGPIDAAFTRINCQGKTYLFKGSQYWRFEDGVLDPDYPRNISDGFDGIPDNVDAALALPAHSYSGRERVYFFKGKQYWEYQFQHQPSQEECEGSSLSAVFEHFAMMQRDSWEDIFELLFWGRTSAGTRQPQFISRDWHGVPGQVDAAMAGRIYISGMAPRPSLAKKQRFRHRNRKGYRSQRGHSRGRNQNSRRPSRATWLSLFSSEESNLGANNYDDYRMDWLVPATCEPIQSVFFFSGDKYYRVNLRTRRVDTVDPPYPRSIAQYWLGCPAPGHL
HUVEC cells
  inhibition of HUVEC attachment to coated plates by αvβ3 antibody: 61%

B2: Tum-5: residues 54 to 132 of Tumstatin (SEQ ID NO:26) (protein)
chain: QRAHGQDLGTLGSCLQRFTTMPFLFCNVNDVCNFASRNDYSYWLSTPALMPMNMAPITGRALEPYISRCTVCEGPAIAI
modifications: Tum-5 (amino acids 54-132 of SEQ ID NO10)
HUVEC cells
  inhibition of HUVEC attachment to coated plates by αvβ3 antibody: significantly inhibited
C-PAE cells [2]; label = plate coating
  attachment to coated plates in the presence of RGD peptide ([…]): not inhibited
